Data from US4895842A, “Phenylalanine derivative and proteinase inhibitor” (Shosuke Okamoto, priority 1985, dated 1990).
Counter-ions that a name gives are not always drawn. Like-named read-outs stand apart in the source and are kept apart here.

What was measured:
[1] = molecular target: T1, human plasmin (Homo sapiens, UniProt P00747); test: biochemical; settings: read-out: Plasmin S-2251 (I50)
Procedure: An inhibitor sample is dissolved in a 0.05M Tris-hydrochloric acid buffer solution (pH=7.4) to make the total volume of 400 μl. […] Then, 50 μl of a 0.2 casein unit/ml human plasmin is added and the mixture is incubated at a temperature of 37° C. for 4 minutes. Thereafter, the reaction is stopped by adding 50 μl of 50% acetic acid.
Thus, the concentration I50 (μmol) of the inhibitor sample, at which the absorbance is one half (i.e., 1/2) of that obtained in the absence of the inhibitor, is determined.

[2] = molecular target: T1, human plasmin; test: Antiplasmin activity: inhibition of fibrin decomposition; assay type: biochemical; settings: read-out: Plasmin Fibrin (I50)
Procedure: (i) Determination of inhibition activity for fibrin decomposition
An inhibitor sample is dissolved in a 0.18M borate-physiological salt buffer solution (pH=7.4) to make the total volume to 600 μl. To this buffer solution, 200 μl of a 0.2% bovine fibrinogen, 100 μl of a 0.3 casein unit/ml human plasmin solution, and 100 μl of a 50 unit/ml bovine thrombin solution, all dissolved in the above-mentioned buffer, are added at a temperature of 37° C. in a constant temperature bath. Then, the dissolution time of the fibrin mass formed above is determined.

[3] = molecular target: T2, bovine thrombin (Bos taurus, UniProt P00735); test: Antithrombin activity: inhibition of S-2238 decomposition; assay type: biochemical
Procedure: (ii) Determination of inhibition activity for S-2238 decomposition
An inhibitor sample is dissolved in a 0.05M Tris-hydrochloric acid buffer solution (pH=8.3) to make a total volume of 400 μl. To this solution, 50 μl of a 0.2 mM S-2238 solution is added and the mixture is incubated at a temperature of 37° C. for 5 minutes in a constant temperature bath. Then, 50 μl of a 0.2 unit/ml bovine thrombin solution is added thereto and the absorbance, at 405 nm, of the p-nitroaniline formed per minute is determined at a temperature of 37° C. by using the so-called initial velocity method. Thus, the concentration I50 (μmol) of the inhibitor sample at which the absorbance is one half (i.e., 1/2) of that obtained in the absence of the inhibitor sample, is determined.

[4] = molecular target: T2, bovine thrombin; test: Antithrombin activity: inhibition of fibrin formation from fibrinogen; assay type: biochemical
Procedure: (i) Determination of inhibition activity against fibrin formation
An inhibitor sample is dissolved in a 0.18M borate-physiological salt buffer solution (pH=7.4) to make the total volume to 500 μl. To this solution, 400 μl of a 0.2% bovine fibrinogen solution and 100 μl of a 4 unit/ml bovine thrombin solution are added at a temperature of 37° C. in a constant temperature bath. Thus, a coagulation time is determined. The inhibitor concentration I50 (μmol), at which the coagulation time obtained in the absence of the inhibitor is extended twice, is determined.

[5] = molecular target: T3, bovine trypsin (Bos taurus, UniProt P00760); test: Antitrypsin activity: inhibition of S-2238 decomposition; assay type: biochemical
T3 sequence (P00760 24-246): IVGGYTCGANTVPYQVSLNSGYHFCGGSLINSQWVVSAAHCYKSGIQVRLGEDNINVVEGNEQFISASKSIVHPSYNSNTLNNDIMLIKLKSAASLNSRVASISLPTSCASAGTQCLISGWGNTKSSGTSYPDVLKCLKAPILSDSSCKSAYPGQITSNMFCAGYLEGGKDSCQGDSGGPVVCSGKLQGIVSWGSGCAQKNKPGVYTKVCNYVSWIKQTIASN

[6] = molecular target: human plasma kallikrein (Homo sapiens, UniProt P03952); test: Anti-plasma kallikrein activity: inhibition of S-2302 decomposition; assay type: biochemical
human plasma kallikrein, sequence (P03952 391-638 limits assumed): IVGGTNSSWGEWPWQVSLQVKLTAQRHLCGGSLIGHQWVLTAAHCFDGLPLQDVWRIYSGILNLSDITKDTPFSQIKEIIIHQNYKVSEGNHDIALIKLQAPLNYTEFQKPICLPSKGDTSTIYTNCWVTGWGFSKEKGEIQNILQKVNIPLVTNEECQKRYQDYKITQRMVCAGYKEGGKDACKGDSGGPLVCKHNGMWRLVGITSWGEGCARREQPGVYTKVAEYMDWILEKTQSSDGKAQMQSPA
human plasma kallikrein, sequence (P03952 20-390 partner limits assumed): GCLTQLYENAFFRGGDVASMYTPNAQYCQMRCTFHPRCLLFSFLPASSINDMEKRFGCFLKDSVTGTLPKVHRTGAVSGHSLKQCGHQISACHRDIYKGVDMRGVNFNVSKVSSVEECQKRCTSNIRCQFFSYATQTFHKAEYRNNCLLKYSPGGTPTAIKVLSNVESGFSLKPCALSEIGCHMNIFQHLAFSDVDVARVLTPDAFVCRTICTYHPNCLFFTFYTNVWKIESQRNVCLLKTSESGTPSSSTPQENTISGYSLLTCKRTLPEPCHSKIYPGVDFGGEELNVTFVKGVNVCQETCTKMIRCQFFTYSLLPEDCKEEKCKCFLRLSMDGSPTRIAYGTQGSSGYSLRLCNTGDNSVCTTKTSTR
Procedure: Determination of inhibition activity for S-2302 decomposition
An inhibitor sample is dissolved in a 0.05M Tris-hydrochloric acid buffer solution (pH=7.8) to make the total volume to 400 μl. To this solution, 50 μl of a 2 mM S-2302 solution is added and the mixture is incubated at a temperature of 37° C. for 5 minutes in a constant temperature bath. Then, 50 μl of a 0.12 unit/ml human plasma kallikrein is added and the mixture is incubated at a temperature of 37° C. for 5 minutes. Thereafter, 50 μl of 50% acetic acid is added to terminate the reaction. The absorbance of the p-nitroaniline formed in the reaction mixture is measured at 405 nm. Thus, the concentration I50 (μmol) of the inhibitor sample, at which the absorbance is one half (i.e., 1/2) of that obtained in the absence of the inhibitor sample, is determined.

[7] = molecular target: human urokinase (Homo sapiens, UniProt P00749); test: biochemical
Procedure: Determination of inhibition activity for S-2444 decomposition
An inhibitor sample is dissolved in a 0.05M Tris-hydrochloric acid buffer solution (pH=8.8) to make the total volume to 400 μl. To this solution, 50 μl of a 1 mM S-2444 solution is added and the mixture is incubated at a temperature of 37° C. for 5 minutes in a constant temperature bath. Then, 50 μl of a 500 unit/ml human urokinase is added and the mixture is incubated at a temperature of 37° C. for 5 minutes. Thereafter, 50 μl of 50% acetic acid is added to terminate the reaction. The absorbance of the p-nitroaniline formed in the reaction mixture is measured at 405 nm. Thus, the concentration I50 (μmol) of the inhibitor sample, at which the absorbance is one half (i.e., 1/2) of that obtained in the absence of the inhibitor sample, is determined.

[8] = Table 2, concentration at which fibrin dissolution time is extended twice, pH 7.4, 37° C.
[9] = Table 2, S-2238 substrate, pH 8.3, 37° C., read-out: Thrombin S-2238 (I50)
[10] = Table 2, S-2238 substrate, pH 8.1, 37° C., read-out: Trypsin S-2238 (I50)
[11] = Table 2, S-2302 substrate, pH 7.8, 37° C., read-out: Plasma Kallikrein S-2302 (I50)
[12] = Table 2, S-2444 substrate, pH 8.8, 37° C., read-out: Urokinase S-2444 (I50)
[13] = Table 4, comparative compounds of Table 3, S-2251 substrate, pH 7.4, 37° C.
[14] = Table 4, comparative compounds of Table 3, fibrin dissolution time extended twice
[15] = Table 4, comparative compounds of Table 3, S-2238 substrate, pH 8.3, read-out: Thrombin S-2238 (I50)
[16] = Table 4, comparative compounds of Table 3, coagulation time extended twice, read-out: Thrombin Fibrinogen (I50)

T1 sequence (P00747 581-810 limits assumed): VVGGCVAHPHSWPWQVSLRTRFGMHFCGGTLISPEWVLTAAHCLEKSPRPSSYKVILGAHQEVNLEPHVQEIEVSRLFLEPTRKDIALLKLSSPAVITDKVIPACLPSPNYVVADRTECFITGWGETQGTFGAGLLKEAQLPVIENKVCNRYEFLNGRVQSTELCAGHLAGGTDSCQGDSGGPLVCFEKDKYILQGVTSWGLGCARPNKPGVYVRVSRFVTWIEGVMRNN
T1 sequence (P00747 97-580 partner limits assumed): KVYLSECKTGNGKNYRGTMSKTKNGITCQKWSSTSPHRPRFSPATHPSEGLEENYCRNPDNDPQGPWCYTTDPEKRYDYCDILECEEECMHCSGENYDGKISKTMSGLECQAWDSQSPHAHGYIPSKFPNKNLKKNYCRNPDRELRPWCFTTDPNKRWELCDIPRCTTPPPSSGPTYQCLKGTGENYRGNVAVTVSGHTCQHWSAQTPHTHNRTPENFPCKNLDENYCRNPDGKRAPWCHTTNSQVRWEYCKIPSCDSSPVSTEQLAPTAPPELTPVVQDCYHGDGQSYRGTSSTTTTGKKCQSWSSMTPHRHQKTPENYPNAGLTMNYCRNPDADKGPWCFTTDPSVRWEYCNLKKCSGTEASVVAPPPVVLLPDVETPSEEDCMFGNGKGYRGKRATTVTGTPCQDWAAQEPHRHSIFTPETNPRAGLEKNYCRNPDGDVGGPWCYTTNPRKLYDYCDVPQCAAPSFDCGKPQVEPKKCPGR

Structure (SMILES)	IC50 [1] [µM]	IC50 [2, 8] [µM]	IC50 [3, 9] [µM]	IC50 [4] [µM]	IC50 [5, 10] [µM]	IC50 [6, 11] [µM]	IC50 [7, 12] [µM]	IC50 [1, 13] [µM]	IC50 [2, 14] [µM]	IC50 [3, 15] [µM]	IC50 [4, 16] [µM]	IC50 ([5]; Table 4, comparative compounds of Table 3, S-2238 substrate, pH 8.1, read-out: Trypsin S-2238 (I50)) [µM]	IC50 ([6]; Table 4, comparative compounds of Table 3, S-2302 substrate, pH 7.8, read-out: Plasma Kallikrein S-2302 (I50)) [µM]	IC50 ([7]; Table 4, comparative compounds of Table 3, S-2444 substrate, pH 8.8, read-out: Urokinase S-2444 (I50)) [µM]	IC50 [5] [µM]	IC50 [6] [µM]	IC50 [7] [µM]	IC50 [3] [µM]
CC(=O)c1ccc(NC(=O)[C@H](Cc2ccc(Oc3ccc([N+](=O)[O-])cn3)cc2)NC(=O)[C@H]2CC[C@H](CN)CC2)cc1 [Compound No. 121, N-(trans-4-aminomethylcyclohexylcarbonyl)-4-(5-nitro-2-pyridyloxy)-L-phenylalanine 4-acetylanilide hydrochloride]	0.95	0.43	280	> 200	0.24	0.18	19											
CC(=O)c1ccc(NC(=O)[C@H](Cc2ccc(OCc3cccc(C#N)c3)cc2)NC(=O)[C@H]2CC[C@H](CN)CC2)cc1 [Compound No. 122, N-(trans-4-aminomethylcyclohexylcarbonyl)-4-(3-cyanobenzyloxy)-L-phenylalanine 4-acetylanilide hydrochloride]	1.1	0.31	> 200	> 50	1	0.43	34											
NC[C@H]1CC[C@H](C(=O)N[C@@H](Cc2ccc(Oc3cc(Cl)ccc3[N+](=O)[O-])cc2)C(=O)Nc2ccncc2)CC1 [Compound No. 137, N-(trans-4-aminomethylcyclohexylcarbonyl)-4-(3-chloro-6-nitrophenoxy)-L-phenylalanine 4-pyridylamide dihydrochloride]	0.9	0.58	> 400	> 200	1.2	0.66	37											
NCc1ccc(C(=O)NC(Cc2ccccc2)C(=O)N2CCCCC2)cc1 (stereo not drawn) [Table 3 Compound No. 3, reference compound]								> 1000	> 1000	> 1000	> 1000	> 300	> 1000	> 1000				
CC(=O)NC(Cc1ccc([N+](=O)[O-])cc1)C(=O)Nc1ccc([N+](=O)[O-])cc1 (stereo not drawn) [Table 3 Compound No. 4, reference compound]								> 100	> 100	> 100	> 100				> 150	> 100	> 100	
CSc1ccc(NC(=O)[C@H](Cc2ccc(OCc3ccccc3)cc2)NC(=O)[C@H]2CC[C@H](CN)CC2)cc1 [compound 29]	3.1	0.35	> 50	> 25	3.1	1.1	330											
CC(=O)c1ccc(NC(=O)[C@H](Cc2ccc(OCC(=O)c3ccccc3)cc2)NC(=O)[C@H]2CC[C@H](CN)CC2)cc1 [compound 30]	1.4	0.95	280	> 50	1	0.37	80											
NC[C@H]1CC[C@H](C(=O)NC(Cc2ccc(N)cc2)C(=O)Nc2ccc(C(=O)c3ccccc3)cc2)CC1 (stereo partly drawn) [compound 33]	13	12	> 200	> 200	0.52	8.5	11											
NC[C@H]1CC[C@H](C(=O)N[C@@H](Cc2ccc(OCc3ccccc3)cc2)C(=O)Nc2cccc(Cl)c2)CC1 [compound 36]	1.7	0.41		> 50	0.82	1.2	100											> 125
CC1CCC(NC(=O)[C@H](Cc2ccc(OCc3ccccc3)cc2)NC(=O)c2ccc(CN)cc2)CC1 (stereo partly drawn) [compound 38]	2.3	0.41	> 50	> 50	2.5	60	> 400											
NC[C@H]1CC[C@H](C(=O)N[C@@H](Cc2ccc(OCc3ccccc3)cc2)C(=O)Nc2cccc([N+](=O)[O-])c2)CC1 [compound 44]	3.8	0.95	> 500	> 100	1.1	1.2	60											
NC[C@H]1CC[C@H](C(=O)N[C@@H](Cc2ccc(OCc3ccccc3)cc2)C(=O)N2CCC(C(=O)c3ccccc3)CC2)CC1 [compound 48]	5.3	3.4		> 100	22	> 100	> 200											> 200
CC(=O)c1ccc(NC(=O)[C@H](Cc2ccc(OCc3cccc([N+](=O)[O-])c3)cc2)NC(=O)[C@H]2CC[C@H](CN)CC2)cc1 [compound 54]	1	0.19	> 200	> 100	1	0.45	35											
CC(=O)c1ccc(NC(=O)[C@H](Cc2ccc(OCc3cccc(C(F)(F)F)c3)cc2)NC(=O)[C@H]2CC[C@H](CN)CC2)cc1 [compound 55]	1.2	0.29	> 125	> 50	2.6	0.42	57											
CC(=O)c1ccc(NC(=O)[C@H](Cc2ccc(OCc3cccc(F)c3)cc2)NC(=O)[C@H]2CC[C@H](CN)CC2)cc1 [compound 56]	1.9	0.29	500	> 100	1.2	0.76	46											
C=CCOc1ccc(C[C@H](NC(=O)[C@H]2CC[C@H](CN)CC2)C(=O)Nc2ccc(C(C)=O)cc2)cc1 [compound 57]	4.6	3.3	730	> 500	0.73	1.4	45											
Cc1ccc(NC(=O)[C@H](Cc2ccc(OCc3ccccc3)cc2)NC(=O)[C@H]2CC[C@H](CN)CC2)cc1C [compound 58]	3.4	0.72	> 125	> 50	1.3	2.8	> 150											
NCc1ccc(C(=O)N[C@@H](Cc2ccc(OCc3ccccc3)cc2)C(=O)NC2CC3CCC2C3)cc1 (stereo partly drawn) [compound 62]	1.8	0.58	> 200	> 100	2.4	8.3	> 500											
